In data set [1] the test system is A/Hong Kong/415742Md/2009 (H1N1). It is filed as in vivo.
A further data set concerns influenza A virus (H1N1). It is filed as cell-based, influenza A virus A/Hong Kong/415742Md/2009 (H1N1).
The next data set can be described thus: in vitro. Particulars: dog, MDCK cells.

Each structure is given as a SMILES string. Values after ≈ are worked out from the molar mass of the structure shown. Where two headings read alike, the source gives them in different places. Peptide text beside a SMILES is read from it.

For orientation: CC50 means the concentration giving 50% cytotoxicity. The low end stands for harm at low concentration, the high end for better tolerance by the cells. Broadly, the viability is a read-out of living cells in per cent, often relative to untreated cells. Regarding `CC[C@H](C)[C@H](NC(=O)[C@H](C)NC(=O)CNC(=O)[C@@H](N)CC(N)=O)C(=O)N[C@@H](CS)C(=O)N[C@@H](Cc1c[nH]c2ccccc12)C(=O)NCC(=O)N1CCC[C@H]1C(=O)N[C@@H](CS)C(=O)N1CCC[C@H]1C(=O)N[C@H](C(=O)N[C@@H](C)C(=O)N[C@@H](Cc1ccccc1)C(=O)N[C@@H](CCCNC(=N)N)C(=O)N[C@@H](CCC(N)=O)C(=O)N[C@H](C(=O)NCC(=O)N[C@@H](CC(N)=O)C(=O)N[C@@H](CS)C(=O)NCC(=O)N[C@@H](Cc1c[nH]cn1)C(=O)N[C@@H](Cc1ccccc1)C(=O)N[C@@H](CCCCN)C(=O)N[C@H](C(=O)N[C@@H](CCCNC(=N)N)C(=O)N[C@@H](CS)C(=O)N[C@@H](CS)C(=O)N[C@@H](CCCCN)C(=O)N[C@H](C(=O)N[C@@H](CCCNC(=N)N)C(=O)O)[C@@H](C)CC)C(C)C)[C@@H](C)CC)[C@@H](C)O` [Peptide P9] (H-NGAICWGPCPTAFRQIGNCGHFKVRCCKIR-OH), in data set [1] (pretreated and i.n. or i.p. treated mice, day 5 after challenge, versus untreated), the “viral loads in lung tissues (RNA copies by RT-PCR, titers by plaque assay)” value is “significantly lower than those of the untreated mice”. Besides, the “alveolar damage and interstitial inflammatory infiltration in lung (H&E)” value in data set [1] (pretreated or treated mice versus rmBD4 and untreated mice) is given as “much less severe”. Moreover, in data set [1] (prophylactic, i.n. 50 μg/mouse before challenge with 5 LD50 H1N1, 9 mice/group, 21 days), the survival rate was 100%. Further, in data set [1] (therapeutic, i.n. 3 doses 50 μg/dose/day starting 4 hours after lethal challenge), the survival rate stood at 67%. The compound further registered a survival rate in data set [1] (therapeutic, i.p. 6 doses 200 μg/dose/day starting 4 hours post-challenge) of 22%. For the same compound, in data set [1] (therapeutic, i.p. 6 doses 400 μg/dose/day starting 4 hours post-challenge), the survival rate worked out at 56%. The “endosomal acidification (red fluorescence of pHrodo Red dextran)” value with endosomal acidification was “no red fluorescence in color image was observed”. Further, in the data set with H1N1 virus, the “binding of P9 to cells” value is listed as “no P9 (SEQ ID NO: 10) was detected on the cell membrane or inside the cells”, the “binding of P9 to virus particles” value is listed as “bound to the green-labeled virus particles”, the “virus binding to the cell membrane” value is “could not block the virus binding to the cell membrane” and the “virus entry into cells by endocytosis” value was “did not affect the virus entry into cells by endocytosis”. Moreover, in the data set with influenza A virus (H1N1), the “antiviral effect (infection ratio by plaque assay)” value was “highest antiviral effect” and the “antiviral effectiveness in low-salt PB compared with high-salt MEM” value is reported as “more effective in low-salt phosphate buffer (PB) than in high-salt minimum essential medium (MEM)”. Moreover, in the data set with MDCK cells, the “TC50 (50% toxic concentration)” value was determined as 860 mg/L (≈ 258 µM). For the same compound, in the data set “in vitro”, the half-maximal cytotoxic concentration (CC50) at 24 h was found to be 860 mg/L (≈ 258 µM); the viability at 24 h, 7.8 µg/mL worked out at 102%; the viability at 24 h, 15.6 µg/mL came to 95.9%; the viability at 24 h, 31.25 µg/mL was determined as 108%. Besides, in the data set “in vitro”, the viability at 24 h, 62.5 µg/mL stood at 96%; the viability at 24 h, 125 µg/mL came to 94.7%; the viability at 24 h, 250 µg/mL was found to be 95.3%; the viability at 24 h, 500 µg/mL is 83.4%. Besides, in the data set “in vitro”, the viability at 24 h, 750 µg/mL was determined as 59.8% and the viability at 24 h, 1000 µg/mL was determined as 38.7%.
As for `CC[C@H](C)[C@H](N)C(=O)N[C@H](C(=O)N[C@@H](CC(N)=O)C(=O)N[C@@H](CC(N)=O)C(=O)N1CCC[C@H]1C(=O)N[C@H](C(=O)N[C@H](C(=O)N[C@@H](CS)C(=O)N[C@@H](CCSC)C(=O)N[C@H](C(=O)N[C@@H](CC(N)=O)C(=O)NCC(=O)N[C@@H](C)C(=O)N[C@H](C(=O)N[C@@H](CS)C(=O)N[C@@H](Cc1c[nH]c2ccccc12)C(=O)NCC(=O)N1CCC[C@H]1C(=O)N[C@@H](CS)C(=O)N1CCC[C@H]1C(=O)N[C@H](C(=O)N[C@@H](C)C(=O)N[C@@H](Cc1ccccc1)C(=O)N[C@@H](CCCNC(=N)N)C(=O)N[C@@H](CCC(N)=O)C(=O)N[C@H](C(=O)NCC(=O)N[C@@H](CC(N)=O)C(=O)N[C@@H](CS)C(=O)NCC(=O)N[C@@H](Cc1c[nH]cn1)C(=O)N[C@@H](Cc1ccccc1)C(=O)N[C@@H](CCCCN)C(=O)N[C@H](C(=O)N[C@@H](CCCNC(=N)N)C(=O)N[C@@H](CS)C(=O)N[C@@H](CS)C(=O)N[C@@H](CCCCN)C(=O)N[C@H](C(=O)N[C@@H](CCCNC(=N)N)C(=O)O)[C@@H](C)CC)C(C)C)[C@@H](C)CC)[C@@H](C)O)[C@@H](C)CC)[C@@H](C)O)[C@@H](C)O)[C@@H](C)CC)[C@@H](C)CC` [smBD4, reference compound], the “antiviral effectiveness in low-salt PB compared with high-salt MEM” value in the data set on influenza A virus (H1N1) is on record as “more effective in low-salt phosphate buffer (PB) than in high-salt minimum essential medium (MEM)”. The “TC50 (50% toxic concentration)” value with MDCK cells came out at 94 mg/L (≈ 21.2 µM). Also, in the data set “in vitro”, the CC50 at 24 h came out at 94 mg/L (≈ 21.2 µM); the viability at 24 h, 7.8 µg/mL came to 93.7%; the viability at 24 h, 15.6 µg/mL turned out to be 85.3%; the viability at 24 h, 31.25 µg/mL came out at 71.9%. In addition, in the data set “in vitro”, the viability at 24 h, 62.5 µg/mL amounted to 60%; the viability at 24 h, 125 µg/mL came out at 45.5%; the viability at 24 h, 250 µg/mL amounted to 36.5%.

(Values after US9822155B2 (priority 2013, dated 2017).)
